Where “and” joins values, the source holds several entries; their conditions need not be identical. Identical values can stand only once.
What was measured:
[1] = test system: HIV-1 isolate G-9106 (zidovudine-resistant); conditions: read-out: IC50 (concentration at which 50% of the reverse transcriptase activity is inhibited); cited from earlier work
[2] = test system: HIV-1 isolate G-6912 (zidovudine-resistant); conditions: read-out: IC50 (concentration at which 50% of the reverse transcriptase activity is inhibited); cited from earlier work
HIV-1 [3] = test system: HIV-1; parameters: species or system Hu-PBL-SCID mice; conditions: mouse, in vivo
Method: Mutant C.B 17 mice are used as model systems to examine the in vivo homing, engraftment, and growth patterns of normal and malignant human hematopoictic cells. Lapidot et al., Blood, 80, 32a (1992). […] Mosier et al., Science, 251, 791 (1991). […] Mosier et al., cited supra. Hu-PBL-SCID mice were generated as described previously. Mosier et al., cited supra. Non-toxic doses of TXU-5/B53-PAP (20%-50% of LD10) were administered intraperitoneally by injecting half of the total dose as a bolus and delivering the remainder i.p. over 2 weeks using Alzet micro-osmotic pumps.
Two weeks after infection with HIV-1, mice were electively killed and fresh peritoneal lavage cells as well as spleen cells were isolated, cocultured with phytohemagglutinin(PHA)-stimulated human peripheral blood mononuclear cells from an HIV-1 antibody negative donor, and culture supernatants were tested every 3-4 days for a maximum of 28 days for the presence of HIV-1 antigen with a commercially available enzyme immunoassay (Abbott Laboratories, North Chicago, Ill.) that detects primarily the core p24 antigen of HIV-1, as previously described. Goudsmit et al., J. Infectious Diseases, 155, 558 (1987). In addition to this culture method, DNA was also isolated from the peritoneal lavage cells as well as splenocytes for detection of HIV-1 DNA by PCR amplification of a 115 b.p. sequence in the gag region of the HIV-1 genome using two 29-base oligonucleotide primers, SK38 and SK39, that flank the region to be amplified. Ou C-Y et al., Science, 239, 295 (1988) DNA samples were also examined for the presence of human DNA by PCR amplification of a 110-bp fragment from the first exon of the human β-globin gene using two 20-base oligonucleotide primers, PCO3 and PCO4, that flank the region to be amplified, as previously described by Uckun et al. in Blood, 79, 2201 (1992).

HIV-1 [4] = test system: HIV-1; parameters: species or system Hu-PBL-SCID mice; conditions: mouse, in vivo; remark: listed apart in the source

## Cc1cn([C@H]2C[C@H](N=[N+]=[N-])[C@@H](CO)O2)c(=O)[nH]c1=O [ZDV, zidovudine]
[1]
  IC50: 8.7 µM
[2]
  IC50: 1.5 µM
HIV-1 [3]
  Hu-PBL-SCID mice HIV-1 negative: 3 of 10
  PCR + Cx: mice PCR-positive and culture-positive (footnote c): 4/8 and 4
  PCR + Cx: mice PCR-positive but culture-negative (footnote b): 4/8 and 3
  PCR Only: PCR- mice/analyzed: 2/2
  Peritoneal Lavage Cells PCR+ (mice positive/analyzed): 7/10
  Peritoneal Lavage and Spleen Mixed Cx+ (cultures positive/analyzed): 4/8
  Spleen Cells PCR+ (mice positive/analyzed): 5/10
HIV-1 [4]
  gp120 on CD4+ lymphocytes from the peritoneal cavity (flow cytometry): presence of gpl120 on CD4+ cells
